Measured values reported in PMC9283466, “In silico identification of two peptides with antibacterial activity against multidrug-resistant Staphylococcus aureus” (NPJ Biofilms and Microbiomes, 2022).
In brackets after ≈: the same amount, converted by molar mass. Bridge positions count the residues as written; N and C are the ends. Peptide text beside a SMILES is read from it.

Columns and labels:
Ent. faecalis JH2-2 = assay: microbe, parasite or virus in culture; assay type: cell-based, Enterococcus faecalis
Procedure: (§1) To determine the antimicrobial activity of the new antimicrobial peptides, HG2 and HG4, their minimum inhibitory concentrations (MICs) were determined by broth microdilution method[51] in cation adjusted Mueller Hinton broth (MHB) following the International Organisation for Standardisation (ISO) 20776-1 standard for MIC testing using a final bacterial inoculum of 5 × 10^5 CFU/ml[52]. […] The peptides dissolved in sterile distilled water were added to bacteria culture and incubated overnight at appropriate conditions. The MICs of the peptides and comparator antibiotics were recorded after 18–24 h. The minimum bactericidal concentrations (MBCs) were also determined and were taken as the lowest concentration of the antimicrobial that prevented the growth of bacterial cells after the subculture of cells (from MIC treatment) onto antibiotic-free media.

[1] = Peptide-lipid interaction and insertion, lipid monolayer; assay type: binding, E. coli; conditions: LPS; for Speed of insertion: initial surface pressure 30+/-0.5 mN/m; for Critical pressure of insertion πc: peptide 1 µg/mL
Procedure: Peptide–lipid interaction was measured using a lipid monolayer formed at the air:water interface with total lipid extracts and pure lipids. Total lipids were extracted from overnight cultures of MRSA or human erythrocytes using the Folch extraction procedure[14],[40]. Extracted total lipids were dried, re-solubilised in chloroform:methanol (2:1, v/v) and stored at −20 °C under nitrogen. Pure prokaryotic and eukaryotic lipids used were: cardiolipin, POPC (1-palmitoyl-2-oleoyl-glycero-3-phosphocholine), POPE (1-palmitoyl-2-oleoyl-sn-glycero-3-phosphoethanolamine) and POPG (1-palmitoyl-2-oleoyl-sn-glycero-3-phospho-(1’-rac-glycerol) (Avanti Polar Lipid). LTA (Lipoteichoic acid from S. aureus) and LPS (lipopolysaccharide from E. coli) (Invitrogen, UK) were also tested. Pure lipids were reconstituted in chloroform:methanol (2:1 v/v) at 1 mg/ml and stored at −20 °C under nitrogen. For peptide–lipid interaction assay, lipid monolayers at the air:water interface were formed by spreading total lipid extract or pure lipids at the surface of 800 µl of sterile PBS using a 50 µl Hamilton’s syringe. Lipids were added until the surface pressure reached the desired value. After 5–10 min of incubation allowing the evaporation of the solvent and stabilisation of the initial surface pressure, 8 µl of HG2 or HG4 diluted in sterile PBS at 100 µg/ml were injected into the 800 µl sub-phase of PBS under the lipid monolayer (pH 7.4, volume 800 µl) using a 10 µl Hamilton’s syringe giving a final concentration of peptide of 1 µg/ml, as preliminary experiments had shown that this concentration was optimal. The variation of the surface pressure caused by peptide insertion was then continuously monitored using a fully automated microtensiometer (µTROUGH SX, Kibron Inc, Finland) until it reached equilibrium (maximal surface pressure increase is usually obtained after 15–25 min). To reflect physiological situations, the initial surface pressure was fixed at 30 ± 0.5 mN/m in some experiments as this value corresponds to a lipid packing density theoretically equivalent to that of the outer leaflet of the eukaryotic and prokaryotic cell membrane. In other experiments, the critical pressure of insertion of HG2 or HG4 in the total lipid extracts and pure lipids was measured as follows[14],[56]. Briefly, in these experiments, the initial pressure of the lipid monolayer was set up at different values (between 10 and 30 mN/m) and the variation of pressure caused by the injection of the peptide was measured. […] All experiments were carried out in a controlled atmosphere at 20 ± 1 °C and data were analyzed using the Firmware 2.5 programme (Kibron Inc.). The accuracy of the system under our experimental conditions was determined to be ±0.25 mN/m for surface pressure measurements.

[2] = tested on: LPS-driven NF-kB activation, eLUCidate Raw 264.7 NF-kB reporter cell line; assay: Anti-inflammatory activity, NF-kB luciferase reporter; assay type: cell-based, murine; conditions: 10 ng/ml LPS from E. coli, 6 h
Procedure: (§2) The inhibitory activity of HG2, HG4 and comparator compounds against LPS and LTA was assessed using eLUCidate™ Raw 264.7 NF-kB reporter cell line (AMSBIO) as previously described. The eLUCidate NF-kB reporter cell line is a stably transfected Raw 264.7 cell line which expresses the Renilla luciferase reporter gene under the transcriptional control of the NF-kB response element, a key transcription factor involved in immune and inflammatory responses. This reporter cell line has been used to measure the induction of various toll-like receptors (TLR) by ligands, including LPS and LTA, therefore providing an effective way to evaluate inhibitors of their activations. Briefly, cells were grown and maintained following the manufacturer’s instructions in Dulbecco’s modified essential medium (DMEM) supplemented with 10% fetal calf serum (FCS), 1% L-glutamine, 1% antibiotics (Invitrogen) and containing 3 µg/ml of puromycin (Sigma-Aldrich, UK). To test the inhibitory activity of HG2 and HG4 on LPS or LTA-driven NF-kB activation, eLUCidate™ Raw 264.7 cells grown on 75 cm^2 flasks were detached using trypsin-EDTA solution (Thermofisher, UK) and seeded into 96-well cell culture plates (Greiner Bio-one, UK) at ~25,000 cells per well (counted using Mallasez’s chamber). The next day, wells were emptied, and cells were exposed to optimal concentrations of LPS or LTA determined from preliminary experiments, (i.e. 10 ng/ml of LPS from E. coli or 10 µg/ml of LTA from S. aureus (Invivogen, UK)) in the presence of increasing concentrations of HG2 or HG4 (from 0 to 500 µg/ml, serial 1:2 dilutions). Pyrrolidine dithiocarbamate (PDTC, 100 µM) and polymyxin B (PMB, 100 µM) (Sigma-Aldrich, UK) were used as positive controls based on their well-known activity as anti-inflammatory molecules and blockers/neutralisers of LPS and LTA, respectively. Importantly, all steps were performed using non-pyrogenic plastics and RNase/DNase molecular biology tips to limit the risk of the presence of a trace of LPS/LTA. After 6 h incubation at 37 °C and 5% CO2, wells were emptied, and the cells were treated with 70 µl of ice-cold PBS containing 1% Triton X-100. After 10 min incubation on ice under orbital shaking at 200 rpm, 50 µL of cell lysates were collected and transferred into white 96-well luminescence plates (Dominique Dutscher) already containing 100 µL of Renilla luciferase substrate (Yelen, France). Luminescence signals of the wells were immediately measured using a microplate reader (Biotek Synergy Mx, UK). The luminescence values were expressed as a percentage of control inflammation corresponding to values obtained after treatment with LPS or LTA in the absence of an inhibitor. The IC50 values of PDTC, PMB, HG2 or HG4 on LPS or LTA-mediated inflammation (i.e. the concentration of molecule causing a reduction of 50% of the luciferase’s induction caused by LPS or LTA) were calculated using GraphPad® Prism 7 software.

[3] = tested on: LTA-driven NF-kB activation, eLUCidate Raw 264.7 NF-kB reporter cell line; assay: as above; assay type: cell-based, murine; conditions: 10 µg/ml LTA from S. aureus, 6 h
Procedure: as §2

P. aeruginosa = assay: microbe, parasite or virus in culture; assay type: cell-based, Pseudomonas aeruginosa
In short: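 Peptides were dissolved in sterile distilled water and added to bacterial cultures at a final 5 × 10^5 CFU/ml in cation-adjusted Mueller Hinton broth. Plates were incubated overnight and MICs were read at 18–24 h following ISO 20776-1. Subculture from MIC treatments onto antibiotic-free media gave MBCs.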

Ent. faecalis = assay: microbe, parasite or virus in culture; assay type: cell-based, Enterococcus faecalis; conditions: Ent. faecalis; Supplementary Table 5
Procedure: as §1

SMILES | MIC (Ent. faecalis JH2-2) | Speed of insertion [1] | Critical pressure of insertion πc [1] | IC50, LPS-mediated inflammation [2] | IC50, LTA-mediated inflammation [3] | Minimum inhibitory Concentrations MICs (P. aeruginosa) | Minimum inhibitory Concentrations MICs (Ent. faecalis)
CC[C@H](C)[C@H](NC(=O)[C@H](CC(C)C)NC(=O)[C@H](CC(C)C)NC(=O)[C@H](CC(C)C)NC(=O)[C@H](CCCCN)NC(=O)[C@H](CCCCN)NC(=O)[C@@H](N)CCSC)C(=O)N[C@@H](CC(C)C)C(=O)N[C@@H](Cc1ccccc1)C(=O)N[C@H]1CSSC[C@@H](C(=O)N[C@@H](CCCCN)C(=O)N[C@@H](CCCCN)C(=O)N[C@@H](C)C(=O)N2CCC[C@H]2C(N)=O)NC(=O)CNC(=O)[C@H](C)NC(=O)[C@H](CC(C)C)NC(=O)[C@H](C)NC(=O)[C@H](CC(C)C)NC(=O)[C@H](C)NC(=O)[C@H](CC(C)C)NC1=O [HG2] (H-MKKLLLILFCLALALAGCKKAP-NH2; disulfide 10-18; N-terminus assumed) | 256 µg/mL (≈ 109 µM) | 0.43 mN/m/10 sec | 36.03 mN/m | 73.99 ± 3.40 µg/mL | 91.49 ± 6.03 µg/mL | – | –
CC[C@H](C)[C@H](NC(=O)[C@H](CC(C)C)NC(=O)[C@H](CC(C)C)NC(=O)[C@H](C)NC(=O)CNC(=O)CNC(=O)[C@@H](NC(=O)[C@@H](NC(=O)[C@H](CC(C)C)NC(=O)[C@H](C)NC(=O)[C@H](CC(C)C)NC(=O)CNC(=O)[C@H](CC(C)C)NC(=O)[C@@H](N)C(C)C)[C@@H](C)CC)C(C)C)C(=O)N[C@@H](CCCCN)C(=O)N[C@@H](CCCCN)C(=O)N[C@@H](CCCCN)C(=O)N[C@@H](CCC(N)=O)C(=O)N[C@@H](C)C(=O)N[C@@H](CCCCN)C(=O)N[C@@H](CO)C(N)=O [HG4] (H-VLGLALIVGGALLIKKKQAKS-NH2; N-terminus and C-terminus assumed) | – | 0.31 mN/m/10 sec | 34.08 mN/m | 113.80 ± 5.00 µg/mL | 26.45 ± 3.11 µg/mL | ≥ 1024 µg/mL | 128 µg/mL
